# From the NIST ThermoML archive (doi:10.1021/acs.jced.6b00357)
# “And” between values parts separate entries of the source, which are not always exact repeats. Equal entries are not always repeated. ± gives the expanded uncertainty stated by the source.
# Settings: Liquid, Transpiration method
smiles,measurement,setting,value
O [water],vapor or sublimation pressure,293.15 K,2.319 ± 0.094 kPa and 2.32 ± 0.094 kPa and 2.315 ± 0.094 kPa
same,vapor or sublimation pressure,298.15 K,3.178 ± 0.13 kPa
